# Results: PMC4501720 (PLoS ONE, 2015)
# Tested on: whole blood cells of group 3 pigs vaccinated with BCG-pAg85A
# Assay type: cell-based, pigs (Sus scrofa domestica)
row,Substance,animals with positive proliferative response to peptide
1,"131–150: synthetic overlapping peptide of mature Ag85A, aa 131–150 (SALTLAIYHPQQFVYAGAMS; UniProt P9WQP3 174-193, looked up, fragment)",5/6

# Tested on: whole blood cells of group 3 pigs vaccinated with BCG-pAg85A
# Assay type: cell-based, pigs (Sus scrofa domestica)
# Remark: another data set of the same source
Substance,"IFN-γ levels, BCG / pAg85A animal number 1","IFN-γ levels, BCG / pAg85A animal number 2","IFN-γ levels, BCG / pAg85A animal number 3","IFN-γ levels, BCG / pAg85A animal number 4","IFN-γ levels, BCG / pAg85A animal number 5","IFN-γ levels, BCG / pAg85A animal number 6",group 3 animals recognizing the peptide (significant IFN-γ levels)
"131–150: synthetic overlapping peptide of mature Ag85A, aa 131–150 (SALTLAIYHPQQFVYAGAMS; UniProt P9WQP3 174-193, looked up, fragment)","11,114 pg/mL","1,754 pg/mL","5,306 pg/mL",868 pg/mL,"11,072 pg/mL","4,687 pg/mL",6/6 and all six
"231–250: synthetic overlapping peptide of mature Ag85A, aa 231–250 (GFVRTSNIKFQDAYNAGGGH; UniProt P9WQP3 274-293, looked up, fragment)","11,639 pg/mL","13,693 pg/mL",423 pg/mL,<5 pg/mL,"1,018 pg/mL",665 pg/mL,
"241–260: synthetic overlapping peptide of mature Ag85A, aa 241–260 (QDAYNAGGGHNGVFDFPDSG; UniProt P9WQP3 284-303, looked up, fragment)",40 pg/mL,<5 pg/mL,<5 pg/mL,<5 pg/mL,<5 pg/mL,66 pg/mL,
"251–270: synthetic overlapping peptide of mature Ag85A, aa 251–270 (NGVFDFPDSGTHSWEYWGAQ; UniProt P9WQP3 294-313, looked up, fragment)",410 pg/mL,317 pg/mL,<5 pg/mL,11 pg/mL,161 pg/mL,163 pg/mL,
"261–280: synthetic overlapping peptide of mature Ag85A, aa 261–280 (THSWEYWGAQLNAMKPDLQR; UniProt P9WQP3 304-323, looked up, fragment)",31 pg/mL,<5 pg/mL,<5 pg/mL,157 pg/mL,728 pg/mL,"1,240 pg/mL",
"275–294: synthetic overlapping peptide of mature Ag85A, aa 275–294 (KPDLQRALGATPNTGPAPQG; UniProt P9WQP3 318-337, looked up, fragment)",57 pg/mL,<5 pg/mL,<5 pg/mL,<5 pg/mL,114 pg/mL,77 pg/mL,
Ag85A tub: recombinant E. coli derived histidine-tagged Ag85A of M. tuberculosis,"145,331 pg/mL","50,084 pg/mL","68,850 pg/mL","3,712 pg/mL","27,544 pg/mL","14,506 pg/mL",
